Experimental data taken from the supplement of paper PMC8671470.

Experiments:
Details in all cases: 72 h
SHI-1 [1] = assay: cell viability (% survival relative to DMSO control, bortezomib = 0%); higher = less cytotoxic
In short: (§1)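 After 72 h at 37 °C with 5% CO2, cell viability in 384-well plates was measured by CellTiter-Glo luminescence. The plates held compounds pre-printed at 1, 10, 100, 1000 or 10000 nM in duplicate, and cells from 10 AML and 5 CML lines seeded at densities titrated to linear growth. Percent survival is the duplicate mean, normalised to vehicle as 100% and a 10 µM positive control as 0%.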

K-562 [2] = assay: as above
In short: as §1

KU-812 [3] = assay: as above
In short: as §1

BV-173 [4] = assay: as above
In short: as §1

Mono-Mac-6 [5] = assay: as above
In short: as §1

ML-2 [6] = assay: as above
In short: as §1

NOMO-1 [7] = assay: as above
In short: as §1

THP-1 [8] = assay: as above
In short: as §1

KG-1 [9] = assay: as above
In short: as §1

HEL [10] = assay: as above
In short: as §1

MV4-11 [11] = assay: as above
In short: as §1

MOLM-13 [12] = assay: as above
In short: as §1

HL-60 [13] = assay: as above
In short: as §1

KCL-22 [14] = assay: as above
In short: as §1

SHI-1 [15] = tested on: SHI-1
In short: (§2)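 Fifteen myeloid leukaemia lines in RPMI 1640 were treated for 72 h at 37 °C and 5% CO2 with five tenfold doses from 1 to 10,000 nM, in duplicate. ATP luminescence was normalised to vehicle and to a positive control at 10 µM, then fitted with a four-parameter log-logistic model. The IC50 came from these fits.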

K-562 [16] = tested on: K-562
In short: as §2

KU-812 [17] = tested on: KU-812
In short: as §2

BV-173 [18] = tested on: BV-173
In short: as §2

Mono-Mac-6 [19] = tested on: Mono-Mac-6
In short: as §2

ML-2 [20] = tested on: ML-2
In short: as §2

NOMO-1 [21] = tested on: NOMO-1
In short: as §2

THP-1 [22] = tested on: THP-1
In short: as §2

KG-1 [23] = tested on: KG-1
In short: as §2

HEL [24] = tested on: HEL
In short: as §2

MV4-11 [25] = tested on: MV4-11
In short: as §2

MOLM-13 [26] = tested on: MOLM-13
In short: as §2

HL-60 [27] = tested on: HL-60
In short: as §2

LAMA-84 = tested on: LAMA-84
In short: as §2

KCL-22 [28] = tested on: KCL-22
In short: as §2

HL-60 [29] = assay: area under dose-response curve (viability, 1 nM-10 uM) (fraction (0-1)); higher = more sensitive
In short: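 In 384-well plates, the full library was rescreened in duplicate on HL-60 cells in RPMI 1640 with 10% FBS, at 1–10,000 nM in five tenfold concentrations, for 72 h at 37 °C, 5% CO2. Each run also held DMSO or 100 nM of one of three metabolic inhibitors. Viability was measured by CellTiter-Glo and normalised to DMSO wells and to wells with proteasome inhibitor, present at 10 μM. Any area under the curve comes from four-parameter log-logistic fitting with drc and PharmacoGx.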

Nc1ccccc1C(=O)C[C@H](N)C(=O)O [L-Kynurenine]
Details | area under dose-response curve, co-treatment: AZD3965 100 nM | area under dose-response curve, co-treatment: DMSO vehicle | area under dose-response curve, co-treatment: GSK2194069 100 nM | area under dose-response curve, co-treatment: pictilisib 100 nM | cell viability, 1 nM [%] | cell viability, 10 nM [%] | cell viability, 100 nM [%] | cell viability, 1000 nM [%] | cell viability, 10000 nM [%]
BV-173 [4] | – | – | – | – | 108 | 90.1 | 101 | 107 | 102
HEL [10] | – | – | – | – | 117 | 80.1 | 102 | 104 | 92.7
HL-60 [13] | – | – | – | – | 122 | 100 | 111 | 105 | 109
HL-60 [29] | < 0.0301 | < 0.0301 | < 0.0301 | < 0.0301 | – | – | – | – | –
K-562 [2] | – | – | – | – | 104 | 125 | 93.3 | 101 | 110
KCL-22 [14] | – | – | – | – | 104 | – | 96.6 | 103 | 97.3
KG-1 [9] | – | – | – | – | 103 | 89.4 | 92.8 | 102 | 96.7
KU-812 [3] | – | – | – | – | 98.8 | 90.5 | 99.5 | 106 | 99.2
ML-2 [6] | – | – | – | – | 107 | 103 | 103 | 100 | 98.7
MOLM-13 [12] | – | – | – | – | 86.5 | 93.2 | 100 | 97.7 | 66.1
MV4-11 [11] | – | – | – | – | 108 | 103 | 93.1 | 101 | 89.4
Mono-Mac-6 [5] | – | – | – | – | 101 | 91.7 | 102 | 93.8 | 95.9
NOMO-1 [7] | – | – | – | – | 102 | 96.3 | 99 | 117 | 101
SHI-1 [1] | – | – | – | – | 120 | 102 | 90.6 | 104 | 98.4
THP-1 [8] | – | – | – | – | 97 | 93.1 | 101 | 102 | 102

Details | IC50 (cell viability) [µM]
BV-173 [18] | > 10
HEL [24] | > 10
HL-60 [27] | > 10
K-562 [16] | > 10
KCL-22 [28] | > 10
KG-1 [23] | > 10
KU-812 [17] | > 10
LAMA-84 | > 10
ML-2 [20] | > 10
MOLM-13 [26] | > 10
MV4-11 [25] | > 10
Mono-Mac-6 [19] | > 10
NOMO-1 [21] | > 10
SHI-1 [15] | > 10
THP-1 [22] | > 10

O=C(O)c1cc(Cl)cc(Cl)c1O [3,5-Dichlorosalicylic Acid]
Details | area under dose-response curve, co-treatment: AZD3965 100 nM | area under dose-response curve, co-treatment: DMSO vehicle | area under dose-response curve, co-treatment: GSK2194069 100 nM | area under dose-response curve, co-treatment: pictilisib 100 nM | cell viability, 1 nM [%] | cell viability, 10 nM [%] | cell viability, 100 nM [%] | cell viability, 1000 nM [%] | cell viability, 10000 nM [%]
BV-173 [4] | – | – | – | – | 107 | 86.1 | 119 | 106 | 106
HEL [10] | – | – | – | – | 102 | 111 | 98.6 | 111 | 104
HL-60 [13] | – | – | – | – | 106 | 136 | 84.5 | 117 | 93.5
HL-60 [29] | < 0.0301 | < 0.0301 | < 0.0301 | < 0.0301 | – | – | – | – | –
K-562 [2] | – | – | – | – | 107 | 125 | 104 | 111 | 90.9
KCL-22 [14] | – | – | – | – | 105 | 140 | 87 | 94.7 | 85.9
KG-1 [9] | – | – | – | – | 107 | 107 | 85.6 | 117 | 96.8
KU-812 [3] | – | – | – | – | 90.5 | 93.7 | 95.8 | 109 | 87.3
ML-2 [6] | – | – | – | – | 97.4 | 99.8 | 95.6 | 107 | 93.1
MOLM-13 [12] | – | – | – | – | 92 | 112 | 83.9 | 110 | 91.7
MV4-11 [11] | – | – | – | – | 96 | 106 | 91.3 | 104 | 88.3
Mono-Mac-6 [5] | – | – | – | – | 106 | 102 | 93.7 | 107 | 89.7
NOMO-1 [7] | – | – | – | – | 93.9 | 94.9 | 88.1 | 105 | 98.7
SHI-1 [1] | – | – | – | – | 110 | 105 | 98.4 | 111 | 90
THP-1 [8] | – | – | – | – | 95.3 | 93.3 | 87.7 | 96.7 | 98.8

Details | IC50 (cell viability) [µM]
BV-173 [18] | > 10
HEL [24] | > 10
HL-60 [27] | > 10
K-562 [16] | > 10
KCL-22 [28] | > 10
KG-1 [23] | > 10
KU-812 [17] | > 10
LAMA-84 | > 10
ML-2 [20] | > 10
MOLM-13 [26] | > 10
MV4-11 [25] | > 10
Mono-Mac-6 [19] | > 10
NOMO-1 [21] | > 10
SHI-1 [15] | > 10
THP-1 [22] | > 10

Cl.NC(CCC(=O)Nc1ccc([N+](=O)[O-])cc1)C(=O)O (stereo unspecified) [GPNA]
Details | area under dose-response curve, co-treatment: AZD3965 100 nM | area under dose-response curve, co-treatment: DMSO vehicle | area under dose-response curve, co-treatment: GSK2194069 100 nM | area under dose-response curve, co-treatment: pictilisib 100 nM | cell viability, 1 nM [%] | cell viability, 10 nM [%] | cell viability, 100 nM [%] | cell viability, 1000 nM [%] | cell viability, 10000 nM [%]
BV-173 [4] | – | – | – | – | 114 | 106 | 94.1 | 101 | 119
HEL [10] | – | – | – | – | 95.2 | 104 | 106 | 91.5 | 104
HL-60 [13] | – | – | – | – | 103 | 60.6 | 104 | 99.3 | 125
HL-60 [29] | < 0.0301 | < 0.0301 | < 0.0301 | < 0.0301 | – | – | – | – | –
K-562 [2] | – | – | – | – | 108 | 96.3 | 100 | 109 | 120
KCL-22 [14] | – | – | – | – | 106 | 91 | 110 | 96.5 | 102
KG-1 [9] | – | – | – | – | 112 | 115 | 95.9 | 102 | 108
KU-812 [3] | – | – | – | – | 108 | 95.5 | 103 | 96.4 | 110
ML-2 [6] | – | – | – | – | 107 | 90.5 | 98.9 | 107 | 109
MOLM-13 [12] | – | – | – | – | 101 | 99.6 | 109 | 98.2 | 134
MV4-11 [11] | – | – | – | – | 117 | 93.5 | 100 | 99.5 | 124
Mono-Mac-6 [5] | – | – | – | – | 92.2 | 96.4 | 105 | 98.3 | 104
NOMO-1 [7] | – | – | – | – | 107 | 102 | 101 | 105 | 105
SHI-1 [1] | – | – | – | – | 107 | 91.6 | 94.9 | 99.5 | 98.3
THP-1 [8] | – | – | – | – | 106 | 101 | 101 | 102 | 104

Details | IC50 (cell viability) [µM]
BV-173 [18] | > 10
HEL [24] | > 10
HL-60 [27] | > 10
K-562 [16] | > 10
KCL-22 [28] | > 10
KG-1 [23] | > 10
KU-812 [17] | > 10
LAMA-84 | > 10
ML-2 [20] | > 10
MOLM-13 [26] | > 10
MV4-11 [25] | > 10
Mono-Mac-6 [19] | > 10
NOMO-1 [21] | > 10
SHI-1 [15] | > 10
THP-1 [22] | > 10
